Assay results published in patent publication US20250270206A1, “COMPOSITIONS AND METHODS FOR INHIBITION OF RAS” (TheRas, Inc., priority 2022, published 2025).

Legend:
[1] = target: T1, GDP-loaded KRAS4b (amino acids 1-169) G12C/C118S (Homo sapiens, UniProt P01116, C118S/G12C); assay: MALDI-TOF MS covalent Cys12 modification, GDP-loaded KRAS G12C; assay type: binding; conditions: 15 minutes reaction time, 1 μM protein, 1:2.5 protein to compound ratio
T1 construct: KRAS4b (amino acids 1-169) G12C/C118S protein; made in house
Summary of the method: (§1)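 1 μM KRAS4b(1-169) G12C/C118S loaded with GTP, GppNHp or GDP in 20 mM HEPES, 150 mM NaCl, 1 mM MgCl2, pH 7.3, treated at a 1:2.5 protein:compound ratio in the dark at room temperature. Linear-mode MALDI-TOF; percent modification = adduct peak height over total protein peak heights, at 15 min.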

[2] = target: T2, Avi-KRAS G12C (1-169) GppNHp/RAF1 RBD-3×FLAG (52-151) (Homo sapiens, UniProt P01116, G12C); assay: KRAS G12C-effector (RAF1 RBD) protein:protein interaction HTRF disruption assay; assay type: biochemical; conditions: PPI HTRF
T2 construct: Avi-KRAS G12C (1-169) GppNHp
Summary of the method: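 TR-FRET disruption read-out (excitation 320 nm, emission 615 nm), expressed relative to DMSO set at 100% activity, over a 3-fold compound series of 30-0.02 μM. Tris pH 7.5 buffer with 5 mM MgCl2, 0.1% BSA and 10% DMSO. GppNHp-bound KRAS G12C (50 nM), then RAF1 RBD (75 nM), then detection reagents, each incubated 1 h at RT.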

[3] = target: T3, GTP-loaded KRAS4b (amino acids 1-169) G12C/C118S (Homo sapiens, UniProt P01116, C118S/G12C); assay: MALDI-TOF MS covalent Cys12 modification, GTP-loaded KRAS G12C; assay type: binding; conditions: 15 minutes reaction time, 1 μM protein, 1:2.5 protein to compound ratio
T3 construct: KRAS4b (amino acids 1-169) G12C/C118S protein; made in house
Summary of the method: as §1

[4] = target: T4, GppNHp-loaded KRAS4b (amino acids 1-169) G12C/C118S (Homo sapiens, UniProt P01116, C118S/G12C); assay: MALDI-TOF MS covalent Cys12 modification, GppNHp-loaded KRAS G12C; assay type: binding; conditions: 15 minutes reaction time, 1 μM protein, 1:2.5 protein to compound ratio
T4 construct: KRAS4b (amino acids 1-169) G12C/C118S protein; made in house
Summary of the method: as §1

pERK in NCI-H358 cells = assay: Cell-based pERK HTRF assay; conditions: Homo sapiens, 0.5 h, 30 min incubation
Summary of the method: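 KRAS G12C NCI-H358 cells in RPMI/10% FBS treated 30 min with compound, 9-point 3-fold series from 75 μM final top, 0.25% DMSO. Lysates read for phospho-ERK by HTRF (d2/Eu cryptate antibodies, 615 nm emission) after 4–24 h room-temperature incubation.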

Structure (SMILES) | GDP-KRAS G12C percent of modification [1] | IC50 [2] [nM] | GTP-KRAS G12C percent of modification [3] | GppNHp-KRAS G12C percent of modification [4] | IC50 (pERK in NCI-H358 cells) [nM]
C=CC(=O)N1CC[C@@H](N(C)c2nc(OC[C@@]34CCCN3C[C@H](F)C4)nc3c(Cl)c(-c4ccc(F)c5sc(N)c(C#N)c45)ncc23)[C@@H]1CC [Compound 45] | A (percent of modification ≥70%) | 500 to 5000 | D (percent of modification <10%) | C (10%≤percent of modification <50%) | 100 to 1000
C=CC(=O)N1CCC(N(CC)c2nc(OC[C@@]34CCCN3C[C@H](F)C4)nc3c(F)c(-c4ccc(F)c5sc(N)c(C#N)c45)ncc23)[C@H]1COC (stereo partly shown) [Compound 25] | A (percent of modification ≥70%) | ≤ 500 | A (percent of modification ≥70%) | A (percent of modification ≥70%) | 100 to 1000
C=CC(=O)N1CC[C@@H](N(C)c2nc(OC[C@@]34CCCN3C[C@H](F)C4)nc3c(F)c(-c4ccc(F)c5sc(N)c(C#N)c45)ncc23)[C@H]1CC [Compound 42] | A (percent of modification ≥70%) | ≤ 500 | A (percent of modification ≥70%) | A (percent of modification ≥70%) | 100 to 1000
C=CC(=O)N1CC[C@@H](N(C)c2nc(OC[C@@]34CCCN3C[C@H](F)C4)nc3c(Cl)c(-c4ccc(F)c5sc(N)c(C#N)c45)ncc23)[C@@H]1C [Compound 53] | A (percent of modification ≥70%) | ≤ 500 | B (50% percent of modification <70%) | A (percent of modification ≥70%) | ≤ 100
C=CC(=O)N1CC[C@@H](N(CC)c2nc(OC[C@@]34CCCN3C[C@H](F)C4)nc3c(Cl)c(-c4ccc(F)c5sc(N)c(C#N)c45)ncc23)[C@@H]1C [Compound 51] | A (percent of modification ≥70%) | ≤ 500 | C (10%≤percent of modification <50%) | A (percent of modification ≥70%) | ≤ 100
C=CC(=O)N1CCC(N(C)c2nc(OC[C@@H]3C[C@@H](F)CN3C)nc3c(F)c(-c4ccc(F)c5sc(N)c(C#N)c45)ncc23)[C@H]1C (stereo partly shown) [Compound 23] | A (percent of modification ≥70%) | ≤ 500 | A (percent of modification ≥70%) | A (percent of modification ≥70%) | 100 to 1000
C=CC(=O)N1CC[C@@H](N(C)c2nc(OC[C@@]34CCCN3C[C@H](F)C4)nc3cc(-c4ccc(F)c5sc(N)c(C#N)c45)c(C(F)(F)F)nc23)[C@H]1C [Compound 15] | A (percent of modification ≥70%) | ≤ 500 | A (percent of modification ≥70%) | A (percent of modification ≥70%) | ≤ 100
C=CC(=O)N1CC[C@@H](N(C)c2nc(OC[C@@]34CCCN3C[C@H](F)C4)nc3cc(-c4ccc(F)c5sc(N)c(C#N)c45)c(C(F)(F)F)nc23)C1 [Compound 8] | C (10%≤percent of modification <50%) | ≤ 500 | C (10%≤percent of modification <50%) | C (10%≤percent of modification <50%) | ≤ 100
C=CC(=O)N1C[C@H](N(C)c2nc(OC[C@@]34CCCN3C[C@H](F)C4)nc3cc(-c4ccc(F)c5sc(N)c(C#N)c45)c(C(F)(F)F)nc23)C[C@H]1C [Compound 13] | C (10%≤percent of modification <50%) | ≤ 500 | C (10%≤percent of modification <50%) | C (10%≤percent of modification <50%) | ≤ 100
C=CC(=O)N1CC[C@@H](N(CC)c2nc(OC[C@@]34CCCN3C[C@H](F)C4)nc3c(F)c(-c4ccc(F)c5sc(N)c(C#N)c45)ncc23)[C@@H]1C [Compound 50] | A (percent of modification ≥70%) | ≤ 500 | C (10%≤percent of modification <50%) | A (percent of modification ≥70%) | ≤ 100
C=CC(=O)N1CC[C@@H](N(CC)c2nc(OC[C@@]34CCCN3C[C@H](F)C4)nc3c(Cl)c(-c4ccc(F)c5sc(N)c(C#N)c45)ncc23)[C@@H]1CC [Compound 49] | A (percent of modification ≥70%) | 500 to 5000 | D (percent of modification <10%) | D (percent of modification <10%) | 100 to 1000

The remaining lines, values ahead:

GDP-KRAS G12C percent of modification [1] | IC50 [2] [nM] | GTP-KRAS G12C percent of modification [3] | GppNHp-KRAS G12C percent of modification [4] | IC50 (pERK in NCI-H358 cells) [nM] | Structure (SMILES)
A (percent of modification ≥70%) | ≤ 500 | A (percent of modification ≥70%) | A (percent of modification ≥70%) | ≤ 100 | C=CC(=O)N1CC[C@@H](N(C)c2nc(OC[C@@]34CCCN3C[C@H](F)C4)nc3c(Cl)c(-c4ccc(F)c5sc(N)c(C#N)c45)ncc23)[C@H]1CC [Compound 47]
A (percent of modification ≥70%) | ≤ 500 | A (percent of modification ≥70%) | A (percent of modification ≥70%) | 100 to 1000 | C=CC(=O)N1CCC(N(C)c2nc(OC[C@@]34CCCN3C[C@H](F)C4)nc3c(F)c(-c4ccc(F)c5sc(N)c(C#N)c45)ncc23)[C@H]1CC (stereo partly shown) [Compound 39]
A (percent of modification ≥70%) | ≤ 500 | A (percent of modification ≥70%) | A (percent of modification ≥70%) | 100 to 1000 | C=CC(=O)N1CCC(N(C)c2nc(OC[C@@H]3C[C@@H](OC)CN3C)nc3c(F)c(-c4ccc(F)c5sc(N)c(C#N)c45)ncc23)[C@H]1C (stereo partly shown) [Compound 28]
A (percent of modification ≥70%) | ≤ 500 | A (percent of modification ≥70%) | A (percent of modification ≥70%) | 100 to 1000 | C=CC(=O)N1CCC(N(C)c2nc(OC[C@@H]3C[C@@H](F)CN3C)nc3c(F)c(-c4ccc(F)c5sc(N)c(C#N)c45)ncc23)[C@H]1COC (stereo partly shown) [Compound 27]
A (percent of modification ≥70%) | ≤ 500 | C (10%≤percent of modification <50%) | A (percent of modification ≥70%) | ≤ 100 | C=CC(=O)N1C[C@H](C)N(c2nc(OC[C@@]34CCCN3C[C@H](F)C4)nc3cc(-c4ccc(F)c5sc(N)c(C#N)c45)c(C(F)(F)F)nc23)C[C@H]1C [Compound 10, 4-(4-((2S,5R)-4-acryloyl-2,5-dimethylpiperazin-1-yl)-2-(((2R,7aS)-2-fluorotetrahydro-1H-pyrrolizin-7a(5H)-yl)methoxy)-6-(trifluoromethyl)pyrido[3,2-d]pyrimidin-7-yl)-2-amino-7-fluorobenzo[b]thiophene-3-carbonitrile]
A (percent of modification ≥70%) | ≤ 500 | A (percent of modification ≥70%) | A (percent of modification ≥70%) | 100 to 1000 | C=CC(=O)N1CCC(N(CC)c2nc(OC[C@@]34CCCN3C[C@H](F)C4)nc3c(Cl)c(-c4ccc(F)c5sc(N)c(C#N)c45)ncc23)[C@H]1CC (stereo partly shown) [Compound 41]
